Source: EPA's ToxValDB 9.5 (doi:10.2903/j.efsa.2017.4978)

Key:
[1] = chronic
Anas platyrhynchos = conditions: reproductive
Apis mellifera = conditions: acute, mortality
Bibionidae = conditions: chronic/long-term; duration: 28 days
Canidae = conditions: oral, Dog Other, organ weight
Colinus virginianus = conditions: oral
Cyprinodon variegatus = conditions: acute; duration: 96 hours; mortality
Daphnia magna = conditions: chronic/long-term; duration: 21 days; reproduction
Folsomia candida = conditions: chronic/long-term; duration: 28 days; reproduction
Mus musculus = conditions: acute; mortality
Pimephales promelas = conditions: chronic/long-term; duration: 262 days; growth
Tagia sp. = conditions: chronic/long-term; duration: 56 days; reproduction
Aphidius rhopalosiphi = experiment: LR50; higher = less toxic; conditions: not reported; mortality
Hypoaspis aculeifer = conditions: chronic/long-term; duration: 14 days; reproduction

COc1cccc(C(=O)NN(C(=O)c2cc(C)cc(C)c2)C(C)(C)C)c1C [Methoxyfenozide]
NOEC [1]: 0.01 mg/L
NOEL (Anas platyrhynchos): 138 mg/kg-day
LD50 (Apis mellifera; duration: 48 hours, dermal): > 100 µg/piece
LD50 (Apis mellifera; duration: 72 hours, oral, unspecified): > 2000 µg/piece
NOEC (Bibionidae): 0.0065 mg/L
NOAEL (Canidae; chronic, duration: 1 years): 9.8 mg/kg-day
NOAEL (Canidae; short-term, duration: 2 weeks): 18 mg/kg-day
LD50 (Colinus virginianus; acute, mortality): > 2250 mg/kg-day
NOEC (Colinus virginianus; reproduction developmental, diet): > 82.7 mg/kg-day
LC50 (Cyprinodon variegatus): > 2.8 µg/mL
NOEC (Daphnia magna): 0.39 mg/L
NOEC (Folsomia candida): 20.5 mg/kg
LD50 (Mus musculus): > 5000 mg/kg
NOEC (Pimephales promelas): 0.53 mg/L
LD50 (Rattus norvegicus; acute, oral, mortality): > 5000 mg/kg
NOAEL (Rattus norvegicus; chronic, duration: 2 years, organ weight): 10.2 mg/kg-day
NOAEL (Rattus norvegicus; reproduction developmental, M, body weight): 153 mg/kg-day
NOEC (Tagia sp.): 2.04 mg/kg
LR50 (Aphidius rhopalosiphi): > 192 g/ha

Cc1cc(C)cc(C(=O)N(NC(=O)c2cccc(O)c2C)C(C)(C)C)c1
LD50 (Mus musculus): > 5000 mg/kg

COc1cccc(C(=O)NN(C(=O)c2cc(C)cc(C(=O)O)c2)C(C)(C)C)c1C
NOEC (Folsomia candida): 20 mg/kg
NOEC (Hypoaspis aculeifer): 1000 mg/kg
NOEC (Tagia sp.): 20 mg/kg
